In ChEMBL document CHEMBL3400009, “A FRET-based assay for screening SIRT5 specific modulators” (Bioorg Med Chem Lett, 2015):
Activity calls are given as the source filed them. The calls are words filed in the database; no cut-off is given here.

Columns and labels:
[1] = molecular target: T1, NAD-dependent protein deacylase sirtuin-5, mitochondrial (Homo sapiens, UniProt Q9NXA8); experiment: Inhibition of SIRT5 (unknown origin) at 30 uM using (DABCYL)ISGASE(SuK)DIVHSE(EDANS)G peptide substrate incubated for 1 hrs followed by 1 hr incubation with trypsin and nicotinamide by FRET-based assay
Target sequence in this assay (Q9NXA8 37-310 limits assumed): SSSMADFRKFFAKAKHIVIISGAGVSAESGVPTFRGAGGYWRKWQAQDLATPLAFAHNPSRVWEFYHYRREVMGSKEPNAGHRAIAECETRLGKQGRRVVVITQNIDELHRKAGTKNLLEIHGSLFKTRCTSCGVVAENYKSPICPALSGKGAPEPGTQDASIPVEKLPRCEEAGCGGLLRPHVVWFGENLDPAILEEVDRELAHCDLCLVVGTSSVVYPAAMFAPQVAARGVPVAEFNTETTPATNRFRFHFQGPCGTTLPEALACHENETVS

[2] = molecular target: T1, NAD-dependent protein deacylase sirtuin-5, mitochondrial; experiment: Inhibition of human SIRT5 assessed as reduction in desuccinylase activity using KQTAR(SuK)STGGKA substrate
Target sequence in this assay (Q9NXA8 whole entry): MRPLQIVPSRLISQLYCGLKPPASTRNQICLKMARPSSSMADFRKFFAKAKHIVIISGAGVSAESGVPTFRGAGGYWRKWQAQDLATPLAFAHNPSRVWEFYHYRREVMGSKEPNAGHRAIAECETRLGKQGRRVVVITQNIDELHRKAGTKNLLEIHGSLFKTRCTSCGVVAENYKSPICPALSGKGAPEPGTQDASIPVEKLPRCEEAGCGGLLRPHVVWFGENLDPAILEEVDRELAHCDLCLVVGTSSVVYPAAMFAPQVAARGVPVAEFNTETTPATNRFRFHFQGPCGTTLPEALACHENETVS

| SMILES | inhibition [1] | IC50 [2] |
| --- | --- | --- |
| N#C/C(=C\c1ccc(-c2cc(Cl)ccc2Cl)o1)C(=O)Nc1cccc2ncccc12 | inactive | > 100 µM |
| Cc1ccc(C(=O)Nc2ccc(S(=O)(=O)O)c3cc(S(=O)(=O)O)cc(S(=O)(=O)O)c23)cc1NC(=O)c1cccc(NC(=O)Nc2cccc(C(=O)Nc3cc(C(=O)Nc4ccc(S(=O)(=O)O)c5cc(S(=O)(=O)O)cc(S(=O)(=O)O)c45)ccc3C)c2)c1 | Active | – |
| NC(=O)c1cccnc1 | inactive | – |
| CC(NC(=O)c1ccccc1/N=C/c1c(O)ccc2ccccc12)c1ccccc1 (stereo not drawn) [SIRTINOL] | inactive | > 100 µM |
| O=C1CCc2c(ccc3ccccc23)O1 [SPLITOMICIN] | inactive | > 100 µM |
